From patent US8211945B2, “Carba-sugar amine derivative and glycolipid metabolic disorder treating agent containing the same as active ingredient” (Seikagaku Corporation, priority 2001, dated 2012)
Positions count from the first letter of the chain named.

Assays:
Assay in all cases: Mutant β-galactosidase activity in model cells, 4 days culture
Type in all cases: cell-based
[1] = target: T1, human mutant β-galactosidase R457Q (Homo sapiens, UniProt P16278, R457Q)
T1 construct: expressed in transfected cells; host or cells: SV40-immortalized skin fibroblasts of a β-galactosidase-deficient knockout mouse
T1 sequence (P16278 29-677 R457Q): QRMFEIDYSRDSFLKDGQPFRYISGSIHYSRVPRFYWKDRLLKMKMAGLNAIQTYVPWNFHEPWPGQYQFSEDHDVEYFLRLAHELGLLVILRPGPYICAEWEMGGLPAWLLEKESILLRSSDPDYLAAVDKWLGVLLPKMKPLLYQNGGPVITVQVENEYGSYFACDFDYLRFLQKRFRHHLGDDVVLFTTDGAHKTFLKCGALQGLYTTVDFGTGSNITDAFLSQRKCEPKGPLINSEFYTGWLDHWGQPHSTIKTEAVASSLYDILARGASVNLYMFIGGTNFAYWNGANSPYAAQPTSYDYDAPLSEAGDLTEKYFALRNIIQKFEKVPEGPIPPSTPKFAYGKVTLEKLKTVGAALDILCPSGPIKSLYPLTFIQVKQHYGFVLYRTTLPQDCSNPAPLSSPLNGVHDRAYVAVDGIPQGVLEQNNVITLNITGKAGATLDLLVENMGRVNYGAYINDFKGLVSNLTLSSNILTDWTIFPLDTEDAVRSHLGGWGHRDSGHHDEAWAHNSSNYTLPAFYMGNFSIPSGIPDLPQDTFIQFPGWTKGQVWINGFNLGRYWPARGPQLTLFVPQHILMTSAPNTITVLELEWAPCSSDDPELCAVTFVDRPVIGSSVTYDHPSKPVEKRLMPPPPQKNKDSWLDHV
Description: (§1) Cultured skin fibroblasts of a β-galactosidase-deficient knockout mouse was immortalized by introducing an SV40 viral gene, and enzyme genes integrated into pSV2neo and an expression vector were also introduced simultaneously, thereby establishing a model cell (Brain Dev., 23(5), 284-287, 2001). The genes used are human normal (GP8) and mutant β-galactosidase gene Y316C, G123R (infantile GM1-gangliosidosis), R201C (juvenile GM1-gangliosidosis), 151T, T82M, R201H, R263S, R457Q (adult GM1-gangliosidosis), W273L, Y83H, R482H and R482C (Morquio-B disease) (Hum. Genet., 93(2), 109-114, 1994).
(§2) As a control substance, 0.5 mM N-(n-butyl)-deoxygalactonojirimycin (NB-DGJ: The Journal of Biological Chemistry, 269, 27108-27114 (1994)) was used, and the substance 18 of the present invention was used in an amount of 0.2 μM.
(§3) Specifically, after culturing the model cell for 4 days using a cell culture medium (10% FCS DMEM) containing the substance 18 of the present invention, the resulting cells were recovered and diluted such that the amount of protein in the suspension became a predetermined level, and then enzyme activity in the diluted suspension was measured. Using 4-methylumbelliferyl-β-D-galactopyranoside as the fluorescent substrate, the enzyme activity during 30 minutes was measured at 37° C.

[2] = target: T2, human mutant β-galactosidase R201H (Homo sapiens, UniProt P16278, R201H)
T2 construct: expressed in transfected cells; host or cells: SV40-immortalized skin fibroblasts of a β-galactosidase-deficient knockout mouse
T2 sequence (P16278 29-677 R201H): T1 sequence (P16278 29-677 R457Q) with R173H, Q429R
Description: as §1, §2, §3

[3] = target: T3, human mutant β-galactosidase I51T (Homo sapiens, UniProt P16278, I51T)
T3 construct: expressed in transfected cells; host or cells: SV40-immortalized skin fibroblasts of a β-galactosidase-deficient knockout mouse
T3 sequence (P16278 29-677 I51T): T1 sequence (P16278 29-677 R457Q) with I23T, Q429R
Description: as §1, §2, §3

| SMILES | enzyme activity, Control ([1]; transferred gene R457Q, control substance 0.5 mM NB-DGJ) | enzyme activity, Control ([2]; transferred gene R201H, control substance 0.5 mM NB-DGJ) | enzyme activity, Control ([3]; transferred gene I51T, control substance 0.5 mM NB-DGJ) | enzyme activity increased in comparison with the control ([1]; R457Q, 0.2 μM) [%] | Relative ratio (×100%) ([1]; R457Q, substance 18 vs control) | enzyme activity ([1]; transferred gene R457Q, 0.2 μM, 4 days) | enzyme activity increased in comparison with the control ([2]; R201H, 0.2 μM) [%] | Relative ratio (×100%) ([2]; R201H, substance 18 vs control) | enzyme activity ([2]; transferred gene R201H, 0.2 μM, 4 days) | Relative ratio (×100%) ([3]; I51T, substance 18 vs control) | enzyme activity ([3]; transferred gene I51T, 0.2 μM, 4 days) |
| --- | --- | --- | --- | --- | --- | --- | --- | --- | --- | --- | --- |
| CCCCN1C[C@H](O)[C@@H](O)[C@@H](O)[C@H]1CO [Control, N-(n-butyl)-deoxygalactonojirimycin, reference compound] | 5.84 | 19.28 | 1.42 | – | – | – | – | – | – | – | – |
| CCCCCCCCN[C@@H]1C=C(CO)[C@H](O)C(O)[C@@H]1O (stereo partly drawn) [Substance 18, N-octyl-5a-carba-α-L-arabino-hexo-5(5a)-enopyranosylamine] | – | – | – | ≥ 150 | 2.42 ×100% | 14.17 | ≥ 150 | 4.46 ×100% | 86.05 | 3.08 ×100% | 4.37 |
